# What was measured:
# Experiment in all cases: ≥ marks a high value that may be exact or a test limit, other limits are often not marked, values filed in µg/mL are converted to µM
# [1] = tested on: Acholeplasma laidlawii A-PG8
# [2] = tested on: Bacillus megaterium KM
# [3] = tested on: Escherichia coli K-12
# [4] = tested on: Micrococcus luteus A270
# [5] = tested on: Pseudomonas aeruginosa ATCC 27853
# [6] = tested on: Salmonella typhimurium CIP 6062
# [7] = tested on: Sinorhizobium meliloti 102F34
# [8] = tested on: Spiroplasma melliferum BC3
# [9] = tested on: Staphylococcus aureus ATCC 25923
# [10] = tested on: Bacillus cereus
# [11] = tested on: Bacillus megaterium
# [12] = tested on: Bacillus sp. ATCC 14412
# [13] = tested on: Candida albicans A39
# [14] = tested on: Candida glabrata
# [15] = tested on: Candida krusei
# [16] = tested on: Cryptococcus neoformans Steroform A
# [17] = tested on: Cryptococcus neoformans Steroform B
# [18] = tested on: Cryptococcus neoformans Steroform C
# [19] = tested on: Cryptococcus neoformans Steroform D
# [20] = tested on: Escherichia coli
# [21] = tested on: Micrococcus luteus
# [22] = tested on: Staphylococcus haemolyticus
# [23] = tested on: Yarrowia lipolytica
# [24] = tested on: Clavibacter michiganensis subsp. michiganensis DSM 46294
# [25] = tested on: Pectobacterium carotovorum subsp. carotovorum DSM 30168
# [26] = tested on: Pseudomonas corrugata DSM 7228
# [27] = tested on: Pseudomonas syringae pv. syringae DSM 10604
# [28] = tested on: Pseudomonas syringae pv. tomato DC3000
# [29] = tested on: Staphylococcus aureus 90857
# [30] = tested on: Xanthomonas vesicatoria DSM 50861
# [31] = tested on: Enterobacter cloacae
# [32] = tested on: Escherichia coli ATCC 25922
# [33] = tested on: Escherichia coli P4
# [34] = tested on: Klebsiella aerogenes
# [35] = tested on: Klebsiella pneumoniae
# [36] = tested on: Pseudomonas aeruginosa
# [37] = tested on: Serratia marcescens
# [38] = tested on: Staphylococcus aureus ATCC 29213
# [39] = tested on: Enterococcus faecalis ATCC 29212
# [40] = tested on: Enterococcus faecalis NCTC 12203
# [41] = tested on: Escherichia coli UB1005
# [42] = tested on: Staphylococcus aureus MR
# [43] = tested on: Staphylococcus epidermidis
smiles,measurement,setting,value
CC[C@H](C)[C@H](NC(=O)CNC(=O)[C@H](CO)NC(=O)[C@H](C)NC(=O)[C@@H](NC(=O)[C@H](CCCCN)NC(=O)[C@H](CO)NC(=O)[C@H](CCSC)NC(=O)[C@H](Cc1c[nH]c2ccccc12)NC(=O)CN)[C@@H](C)CC)C(=O)NCC(=O)N[C@H](C(=O)N[C@@H](Cc1ccccc1)C(=O)N[C@@H](CC(C)C)C(=O)N[C@@H](CO)C(=O)NCC(=O)N[C@@H](CCSC)C(=O)N[C@@H](CCC(N)=O)C(=O)N[C@@H](CCC(N)=O)C(N)=O)[C@@H](C)O [GWMSKIASGIGTFLSGMQQ],MIC,[1],12.5 µM
same,MIC,[2],3.12 µM
same,MIC,[3],10 µM
same,MIC,[4],3 µM
same,MIC,[5],> 100 µM
same,MIC,[6],≥ 100 µM
same,MIC,[7],12.5 µM
same,MIC,[8],≥ 50 µM
same,MIC,[9],> 100 µM
CC[C@H](C)[C@H](NC(=O)[C@H](Cc1ccccc1)NC(=O)[C@@H](NC(=O)[C@@H]1CCCN1C(=O)[C@H](CCCN=C(N)N)NC(=O)[C@H](CO)NC(=O)[C@@H]1CCCN1C(=O)[C@H](CCCCN)NC(=O)[C@H](CCCN=C(N)N)NC(=O)[C@H](CC(C)C)NC(=O)[C@@H]1CCCN1C(=O)[C@H](CCCN=C(N)N)NC(=O)[C@@H](NC(=O)[C@H](Cc1ccc(O)cc1)NC(=O)CNC(=O)[C@H](CO)NC(=O)[C@H](CO)NC(=O)[C@@H](N)Cc1cnc[nH]1)[C@@H](C)O)[C@@H](C)CC)C(=O)N[C@@H](CCCN=C(N)N)C(=O)N1CCC[C@H]1C(=O)N[C@H](C(=O)NCC(N)=O)[C@@H](C)CC [HSSGYTRPLRKPSRPIFIRPIG],MIC,[10],≥ 50 µM
same,MIC,[11],≥ 50 µM
same,MIC,[12],4.42 µM
same,MIC,[13],17.7 µM
same,MIC,[14],7.07 µM
same,MIC,[15],7.07 µM
same,MIC,[16],3.16 µM
same,MIC,[17],3.16 µM
same,MIC,[18],1.79 µM
same,MIC,[19],1.13 µM
same,MIC,[20],> 50 µM
same,MIC,[21],8.84 µM
same,MIC,[22],≥ 50 µM
same,MIC,[23],3.16 µM
CC(C)C[C@H](NC(=O)[C@H](CCCCN)NC(=O)[C@H](CCCN=C(N)N)NC(=O)[C@H](CCCN=C(N)N)NC(=O)[C@@H](N)CCCCN)C(=O)N[C@@H](C)C(=O)N[C@@H](Cc1ccccc1)C(=O)N[C@@H](CCCN=C(N)N)C(=O)N[C@@H](CC(C)C)C(=O)N[C@@H](Cc1ccccc1)C(=O)N[C@@H](CCCN=C(N)N)C(=O)N[C@@H](CC(C)C)C(=O)N[C@@H](Cc1ccccc1)C(=O)N[C@@H](CC(C)C)C(=O)N[C@@H](CCCCN)C(=O)N[C@@H](CC(C)C)C(=O)N[C@H](C(=O)N[C@@H](CC(C)C)C(=O)N[C@@H](CCCCN)C(=O)N[C@@H](CCCCN)C(N)=O)C(C)C [KRRKLAFRLFRLFLKLVLKK],MIC,[24],0.194 µM
same,MIC,[25],3.88 µM
same,MIC,[26],0.971 µM
same,MIC,[27],1.94 µM
same,MIC,[28],0.971 µM
same,MIC,[29],16 µM
same,MIC,[30],0.0971 µM
CC[C@H](C)[C@H](NC(=O)[C@H](Cc1ccccc1)NC(=O)[C@H](CC(N)=O)NC(=O)[C@H](CCCCN)NC(=O)[C@H](CCCN=C(N)N)NC(=O)[C@H](C)NC(=O)[C@H](CCCCN)NC(=O)[C@H](Cc1c[nH]c2ccccc12)NC(=O)[C@@H](N)CCCCN)C(=O)N[C@@H](CCCCN)C(=O)NCC(=O)N[C@@H](CO)C(=O)N[C@@H](CO)C(=O)N[C@@H](CC(C)C)C(=O)NCC(=O)N[C@@H](Cc1c[nH]c2ccccc12)C(=O)N[C@@H](CC(C)C)C(=O)N[C@H](C(=O)N[C@@H](CCC(N)=O)C(=O)N[C@@H](CC(C)C)C(=O)N[C@@H](Cc1ccccc1)C(=O)N[C@@H](CCCN=C(N)N)C(=O)N[C@@H](CCCCN)C(=O)N[C@@H](CCCN=C(N)N)C(=O)O)[C@@H](C)CC [KWKARKNFIKGSSLGWLIQLFRKR],MIC,[31],15.3 µM
same,MIC,[32],15.3 µM
same,MIC,[33],10.8 µM
same,MIC,[20],15.3 µM
same,MIC,[34],21.6 µM
same,MIC,[35],15.3 µM
same,MIC,[36],43.2 µM
same,MIC,[37],≥ 173 µM
same,MIC,[38],21.6 µM
CC[C@H](C)[C@H](NC(=O)[C@H](CCCCN)NC(=O)[C@@H](N)Cc1c[nH]c2ccccc12)C(=O)N[C@H](C(=O)N[C@@H](Cc1ccccc1)C(=O)N[C@@H](Cc1c[nH]c2ccccc12)C(=O)N[C@@H](Cc1c[nH]c2ccccc12)C(=O)N[C@@H](CCCN=C(N)N)C(=O)N[C@@H](CCCN=C(N)N)C(N)=O)C(C)C [WKIVFWWRR],MIC,[39],0.726 µM
same,MIC,[40],0.726 µM
same,MIC,[32],1.45 µM
same,MIC,[41],2.91 µM
same,MIC,[20],1.45 µM
same,MIC,[38],0.363 µM
same,MIC,[42],0.363 µM
same,MIC,[43],0.182 µM
